Series [1] concerns MDCK-MDR1 cells. Kind of series: MDCK-MDR1 bi-directional transport assay. The following applies: 5 μM. The method, then:
(§1) MDCK-MDR1 is a stable-transfected cell line originating from MDCK cells, with over-expression of human MDR1 gene. The cell line is widely used for the identification and characterization of P-gp substrates and inhibitors.
(§2) MDCK-MDR1 cells were plated into 96-well Millipore Millicell-96 plates at 7,500 cells/75 μL/well and incubated for three days at 37° C. with 5% CO2. Cells were washed with Hank's Balanced Salt Solution (HBSS) with 5 mM HEPES for 30 minutes before starting the experiment. Test compound solutions were prepared by diluting DMSO stock into HBSS buffer, resulting in a final DMSO concentration of 0.1%. Prior to the experiment, cell monolayer integrity was verified by […] electrical resistance (TEER). Transport experiment was initiated by adding test compounds to the apical (75 μL) or basal (250 μL) side. Transport plates were incubated at 37° C. in a humidified incubator with 5% CO2. Samples were taken from the donor and acceptor compartments after one hour and analyzed by liquid chromatography with tandem mass spectrometry (LC/MS/MS).
(§3) Digoxin was used as reference control.
(§4) Apparent permeability (Papp) values were calculated using the following equation: Papp=(dQ/dt)/A/Co; where dQ/dt is the initial rate of amount of test compound transported across cell monolayer, A is the surface area of the filter membrane, and Co is the initial concentration of the test compound, calculated for each direction using a 4-point calibration curve by LC/MS/MS.
(§5) Net flux ratio between the two directional transports was calculated by the following equation: Ratio=Papp, B-A/Papp, A-B; where Papp, B-A and Papp, A-B represent the apparent permeability of test compound from the basal-to-apical and apical-to-basal side of the cellular monolayer, respectively.
(§6) Recovery was calculated based on the compound concentration at the end of the experiment, compared to that at the beginning of the experiment, adjusted for volumes.
(§7) A net flux ratio greater than two was considered a positive result for substrate determination. […] If the addition of a known P-gp inhibitor to the experiment reduces the net flux ratio by a significant amount (more than 50% reduction or reduces the ratio to close to unity), it is likely that the compound tested is a P-gp substrate.

Series [2] has as its system P-gp (human MDR1). As to the kind of experiment: MDCK-MDR1 bi-directional transport assay. Conditions: dog; for Papp A→B at 1 h, 5 μM / Papp B→A at 1 h, 5 μM: MDCK-MDR1, Papp. The method, then: as §1, §2, §3, §4, §5, §6, §7
In series [3] the target is T1, MEK1 (Homo sapiens, UniProt Q02750).
T1 construct: N-terminal His-tagged recombinant human full length protein; His (N); purchased Invitrogen PV3303; host or cells: insect cells
Kind of series: MEK inhibition assay, Biological Example 1a (33P-ATP, P81 filter-binding). The following applies: read-out: Assay 1: biochemical MEK IC50. The method, then: MEK1 inhibitory activity of compounds were tested using the following procedure. […] Activated in vitro by RAF1. MW=49.2 kDa, GenBank Accession No. NP_002746. • Substrate: 5 μM ERK2 (K52R), • Kinase-dead mutant, (GenBank Accession No. NM_0011949), aa2-358 with N-terminal His6 tag, MW=43.63 kDa, expressed in E. coli.
The substrate was prepared in freshly prepared Reaction Buffer. The kinase was delivered into the substrate solution and gently mixed. Test compounds were delivered in 100% DMSO into the kinase reaction mixture by Acoustic technology (Echo550; nanoliter range), and incubated for 20 min at room temperature. ^33P-ATP was delivered into the reaction mixture to initiate the reaction. The reaction mixture was incubated for 2 hours at room temperature. Kinase activity was detected by P81 filter-binding method.

Series [4] can be described thus: S9 stability assay, human liver S9 fraction. The following applies: for CLint: known MEK compounds; for microsomal CLint at 1 μM / half-life at 1 μM: pH 7.4, Table 1, human liver S9 fraction; for microsomal CLint at 1 μM: read-out: CLint; for half-life at 1 μM: read-out: Liver S9 t1/2. Format: in vitro ADME. The method, then:
Compounds were assessed for metabolic stability in human skin by assessing their rate of disappearance from human S9 skin fraction. Similarly, compounds were assessed for metabolic stability in human liver by assessing their rate of disappearance from human S9 liver fraction. The protocol below can be used to assess the difference between skin and hepatic metabolism.
The assay was carried out in 96-well microtiter plates at 37° C. Reaction mixtures (25 μL) contained a final concentration of 1 μM test compound, 2 mg/mL liver or skin S9 protein, and 1 mM NADPH in buffer (100 mM potassium phosphate, pH 7.4 buffer with 1 mM EDTA, 3 mM MgCl2). At each of the time points (0, 15, 30, and 60 minutes), 150 μL of quench solution (100% acetonitrile with 0.1% formic acid) with internal standard was transferred to each well. Besides the zero minute controls, mixtures containing the same components except the NADPH were also prepared as the negative control. Verapamil or testosterone was included as a positive control to verify assay performance. Plates were sealed and centrifuged at 4° C. for 15 minutes at 4000 rpm. The supernatant was transferred to fresh plates for LC/MS/MS analysis.
All samples were analyzed on LC/MS/MS using an AB Sciex API 4000 instrument, coupled to a Shimadzu LC-20AD LC Pump system. Analytical samples were separated using a Waters Atlantis T3 dC18 reverse phase HPLC column (20 mm×2.1 mm) at a flow rate of 0.5 mL/min. The mobile phase consisted of 0.1% formic acid in water (solvent A) and 0.1% formic acid in 100% acetonitrile (solvent B).
The extent of metabolism was calculated as the disappearance of the test compound, compared to the 0-min control reaction incubations. Initial rates were calculated for the compound concentration and used to determine t1/2 values and subsequently, the intrinsic clearance, CLint=(0.693) (1/t1/2 (min)) (mL incubation/mg of S9 protein).

The nature of series [5]: Plasma LCMS compound levels, in vivo mouse model. Set-up: species or system mice. Conditions: for concentration at 1 h: male, C57BL/6J, mouse, plasma; for Plasma LCMS Compound Levels: pre-dose (16 h). Here is the method:
These mice were also shaved weekly.
(§8) Week 4 (Experiment end): Skin and blood were collected right before the last morning dose (N=3), 1 hour (N=3 mice), and 2 hours (N=3 mice) after final application; Blood draw: Plasma compound levels (LCMS); Skin biopsy: formalin fixed for histology and p-ERK staining, flash frozen for Western analysis and skin compound levels (LCMS)
(§9) Compound level analysis: Liquid chromatography with mass spectrometry method (LCMS) was used to detect compound levels in the skin and plasma. Tissues were preprocessed prior to LCMS as follows. Tissues were minced and incubated with collagenase and then finally homogenized using the stainless steel beads prior to LCMS analysis. Calibration curves and a QC test were run with each assay.

Series [6] in a line: Compound levels in neck/back skin (LCMS), in vivo mouse model. Set-up: species or system mice. The following applies: topical 1% trametinib. Here is the method: as §8
Skin biopsy and GI tract sampling: Skin was wiped down with 100% ethanol and a 1 cm^2 biopsy was obtained from compound application site each mouse at the 25 day end of experiment (except as noted below). The skin was biopsied prior to final dose from 3 mice, 1 hour after last compound application from 3 mice, 2 hours after last compound application from 3 mice. Half of the specimen were immediately flash frozen for LCMS analysis and Western Blot Analysis. Half of the specimen was fixed for 24 hours in 10% formalin and then transferred to ethanol for immunohistochemistry. Gastrointestinal tract was also formalin fixed overnight then transferred to 70% ETOH for storage.
as §9

In series [7] the test system is C57BL/6J mice. As to the kind of experiment: In vivo mouse model, skin and systemic toxicity of topical application (survival).
Text: This study was designed to assess the skin toxicity and gross systemic toxicity of twice daily topical administration of a compound disclosed herein, as well as to evaluate the effect of metabolic lability on systemic toxicity.
Study Objective: The primary objective of this study was to characterize the skin and systemic toxicity of twice daily topical application of a compound disclosed herein, applied for 25 days in mice. Secondary objectives included determination of the 25-day skin and plasma compound levels of formulations containing three dosages of compound of Ex. 2 after application to 10% body surface area (BSA) murine skin; assessment of gross systemic toxicity from the application of compound of Ex. 2 after twice daily application to 10% BSA murine skin for 25 days; and determination of the correlation of skin and plasma compound levels with associated toxicity.
Mice: 8 week old male C57BL/6J mice (Jackson Laboratories) were shaved prior to start of study and weekly.
Compound application: Compounds were dissolved in a 50% DMSO/50% propyelene glycol vehicle. 0.125 mL of the following compounds were applied to the shaved dorsal back of mice (10% BSA) twice daily for 5 days per week for a total of 24 days. The second dose was applied 8 hours after first morning dose. All mice were shaved once per week at application site.
Oral trametinib was dissolved in 0.5% hydroxypropyl methylcellulose (Sigma-Aldrich) and 0.2% Tween-80 (Sigma-Aldrich) and administered by oral gavage (0.2 mL bolus or 10 mg/kg) once daily 5 days per week. These mice were also shaved weekly.
Weekly (Weeks 0-4): body weight measurements weekly, starting week 0 until experiment end; photographs of dorsal back and face of each mouse weekly, starting week 0 until experiment end; skin; and gross stool analysis assessed weekly for heme color, starting week 0 until experiment end.
The study planned for the mice to be sacrificed at Day 25.
Kaplan Meier curves were analyzed to determine progression to skin toxicity for each arm as compared with vehicle. T-test were used to compare compound levels at each dosage. Ki-67+ cells and p-ERK expression were also assessed on a cellular level via immunostaining. Western blots informed semi-quantitative changes in p-ERK expression.

The record followed here is patent US11161845B2, “Pyrrolopyridine-aniline compounds for treatment of dermal disorders” (Nflection Therapeutics, Inc., priority 2017, dated 2021).

For orientation: efflux ratio means a quotient of directional permeabilities that is used to spot active efflux. Broadly, the Papp A→B is the apparent permeability from the apical to the basolateral side of a cell layer. Read a high Papp A→B as ready permeation. One may read the Papp B→A as the apparent permeability from the basolateral to the apical side of a cell layer. As usually defined, the IC50 is the midpoint of a concentration-inhibition curve.

Molecules are shown by their SMILES.

T1 sequence (Q02750 whole entry): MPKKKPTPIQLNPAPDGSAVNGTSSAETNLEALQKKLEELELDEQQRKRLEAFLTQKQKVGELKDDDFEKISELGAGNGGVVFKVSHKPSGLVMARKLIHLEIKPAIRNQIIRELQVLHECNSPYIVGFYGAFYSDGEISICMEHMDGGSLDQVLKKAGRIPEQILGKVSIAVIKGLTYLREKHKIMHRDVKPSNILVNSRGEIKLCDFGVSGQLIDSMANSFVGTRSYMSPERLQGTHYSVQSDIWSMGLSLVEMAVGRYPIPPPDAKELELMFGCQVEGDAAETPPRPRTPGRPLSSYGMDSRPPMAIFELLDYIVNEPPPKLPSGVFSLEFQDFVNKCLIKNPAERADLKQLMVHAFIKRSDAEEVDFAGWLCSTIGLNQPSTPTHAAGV

For `C[C@H]1O[C@@H](O[C@H]2[C@@H](O)C[C@H](O[C@H]3[C@@H](O)C[C@H](O[C@H]4CC[C@@]5(C)[C@H](CC[C@@H]6[C@@H]5C[C@@H](O)[C@]5(C)[C@@H](C7=CC(=O)OC7)CC[C@]65O)C4)O[C@@H]3C)O[C@@H]2C)C[C@H](O)[C@@H]1O` [Digoxin], the “Recover Rate” value in series [1] turned out to be 96%. Further, the “Papp, A-B Value” in series [1] (single values) is 1.6 ×10⁻⁶ cm/s. Further, the “Papp, B-A Value” in series [1] (single values) worked out at 14.1 ×10⁻⁶ cm/s. Also, the efflux ratio at 1 h, 5 μM in series [2] (MDCK-MDR1) is 9.7. The Papp A→B at 1 h, 5 μM amounted to 1.5 ×10⁻⁶ cm/s in series [2] (A-B Mean) and 1.3 ×10⁻⁶ cm/s in series [2] (A-B Value, single values). In addition, the Papp B→A at 1 h, 5 μM worked out at 14.3 ×10⁻⁶ cm/s in series [2] (B-A Mean) and 14.6 ×10⁻⁶ cm/s in series [2] (B-A Value, single values).

In the case of `C#Cc1ccc(Nc2c(C(=O)NOCCO)c3cccnc3n2C)c(F)c1` [Example 3, 2-((4-Ethynyl-2-fluorophenyl)amino)—N-(2-hydroxyethoxy)-1-methyl-1H-pyrrolo[2,3-b]pyridine-3-carboxamide], the IC50 in series [3] is 2450 nM.

As to `O=C(NOCC1CC1)c1ccc(F)c(F)c1Nc1ccc(I)cc1Cl` [Example C1], in series [4], the CLint is recorded as 10.37 μL/min/mg protein, the microsomal CLint at 1 μM stood at 10.4 µL/min/mg and the half-life at 1 μM came to 0.55 h.

As to `O=C(NOC[C@H](O)CO)c1ccc(F)c(F)c1Nc1ccc(I)cc1F` [Example C2], in series [4], the CLint is reported as 1.02 μL/min/mg protein, the microsomal CLint at 1 μM was 1.02 µL/min/mg and the half-life at 1 μM was 5.67 h.

Consider `Cn1cnc2c(F)c(Nc3ccc(Br)cc3F)c(C(=O)NOCCO)cc21` [Example C3], for which, in series [4], the CLint worked out at 1.25 μL/min/mg protein, the microsomal CLint at 1 μM came out at 1.25 µL/min/mg and the half-life at 1 μM was 4.62 h.

On to `Cn1cnc2c(F)c(Nc3ccc(Br)cc3Cl)c(C(=O)NOCCO)cc21` [Example C4], for which, in series [4], the CLint is reported as 2.50 μL/min/mg protein, the microsomal CLint at 1 μM turned out to be 2.5 µL/min/mg and the half-life at 1 μM was 2.3 h.

For `O=C(NOCCO)c1ccc2cncn2c1Nc1ccc(I)cc1F` [Example C5], in series [4], the CLint worked out at 6.98 μL/min/mg protein, the microsomal CLint at 1 μM came to 6.98 µL/min/mg and the half-life at 1 μM was found to be 0.833 h.

In the case of `CC(=O)Nc1cccc(-n2c(=O)n(C3CC3)c(=O)c3c(Nc4ccc(I)cc4F)n(C)c(=O)c(C)c32)c1` [Example C6], in series [4], the CLint amounted to 0.86 μL/min/mg protein, the microsomal CLint at 1 μM amounted to 0.86 µL/min/mg and the half-life at 1 μM was 6.7 h.

`O=C(NC[C@@H](O)CO)c1ccncc1Nc1ccc(I)cc1F` [Example C7]: in series [4], the CLint was 1.29 μL/min/mg protein, the microsomal CLint at 1 μM is 1.29 µL/min/mg and the half-life at 1 μM turned out to be 4.47 h.

For `CC(=O)Nc1cccc(-n2c(=O)n(C3CC3)c(=O)c3c(Nc4ccc(I)cc4F)n(C)c(=O)c(C)c32)c1` [trametinib, reference compound], the concentration at 1 h in series [5] (10 mg/kg, oral trametinib) stood at 0.0751 µg/mL; in series [5] (topical 1% trametinib), 2.81 µg/mL. Further, the figures for the “Plasma LCMS Compound Levels” value in series [5] (oral trametinib) and in series [5] (topical 1% trametinib) were 39.93 ng/mL and 1339.33 ng/mL, respectively. The “Compound Levels in Neck/Back Skin” value in series [6] (1 h) was determined as 3626.06 µg/mL; in series [6] (pre-dose (16 h)), 4520.39 µg/mL. In addition, the “Survival Rates” value in series [7] (oral trametinib 0.75 mg/kg daily gavage 5x/week, Day 0) is recorded as 100%; in series [7] (oral trametinib 0.75 mg/kg daily gavage 5x/week, Day 3), 90%; in series [7] (oral trametinib 0.75 mg/kg daily gavage 5x/week, Day 6), 70%; in series [7] (oral trametinib 0.75 mg/kg daily gavage 5x/week, Day 9) it was 70%; in series [7] (oral trametinib 0.75 mg/kg daily gavage 5x/week, Day 12), 70%; in series [7] (oral trametinib 0.75 mg/kg daily gavage 5x/week, Day 15) it was 70%. In addition, the “Survival Rates” value was 70% in series [7] (oral trametinib 0.75 mg/kg daily gavage 5x/week, Day 18); 70% in series [7] (oral trametinib 0.75 mg/kg daily gavage 5x/week, Day 21); 70% in series [7] (oral trametinib 0.75 mg/kg daily gavage 5x/week, Day 24); 70% in series [7] (oral trametinib 0.75 mg/kg daily gavage 5x/week, Day 25); 100% in series [7] (topical Trametinib 1%, twice daily 5 days per week, 10% BSA, Day 0); 100% in series [7] (topical Trametinib 1%, twice daily 5 days per week, 10% BSA, Day 3). Further, the “Survival Rates” value was 100% in series [7] (topical Trametinib 1%, twice daily 5 days per week, 10% BSA, Day 6); 100% in series [7] (topical Trametinib 1%, twice daily 5 days per week, 10% BSA, Day 9); 100% in series [7] (topical Trametinib 1%, twice daily 5 days per week, 10% BSA, Day 12); 80% in series [7] (topical Trametinib 1%, twice daily 5 days per week, 10% BSA, Day 15); 0% in series [7] (topical Trametinib 1%, twice daily 5 days per week, 10% BSA, Day 18); 0% in series [7] (topical Trametinib 1%, twice daily 5 days per week, 10% BSA, Day 21). Moreover, the “Survival Rates” value came to 0% in series [7] (topical Trametinib 1%, twice daily 5 days per week, 10% BSA, Day 24) and 0% in series [7] (topical Trametinib 1%, twice daily 5 days per week, 10% BSA, Day 25). Moreover, the “mortality / weight loss” value in series [7] (topically-applied 1%, Day 18) is given as “found dead, or had to be sacrificed due to unacceptable weight loss”.
